System: NCIH929.1 cells
Test: Cell viability assay for Table 2 (CellTiter-Glo 2.0, ATP quantification, 96 hr)
Assay type: cell-based
Details: 96 h, NCIH929.1 cell viability, 96 hr, top concentration 1 μM, 14 points half log titration; read-out: IC50
From the text: Cell Viability Assay for Table 2
CellTiter-Glo® 2.0 Assay was purchased from Promega (Madison, Wis., USA). NCIH929.1 cell line was purchased from ATCC (Manassas, Va., USA). Cell culture flasks and 384-well microplates were acquired from VWR (Radnor, Pa., USA).

Row | SMILES | IC50 [nM]
1 | CN(c1cnn(C2CCN(C(=O)OC(C)(C)C)CC2)c1)c1ccc2c3c(cccc13)C(=O)N2C1CCC(=O)NC1=O (stereo not drawn) [Compound 252, tert-butyl 4-[4-[[1-(2,6-dioxo-3-piperidyl)-2-oxo-benzo[cd]indol-6-yl]-methyl-amino]pyrazol-1-yl]piperidine-1-carboxylate] | < 100
2 | COC1(CN2CCC(C)(n3cc(Cc4ccc5c6c(cccc46)C(=O)N5C4CCC(=O)NC4=O)cn3)CC2)CCC1 (stereo not drawn) [Compound 103, 3-(6-((1-(1-((1-methoxycyclobutyl)methyl)-4-methylpiperidin-4-yl)-1H-pyrazol-4-yl)methyl)-2-oxobenzo[cd]indol-1(2H)-yl)piperidine-2,6-dione] | < 1
3 | C[C@@H]1CN(Cc2ccc(Cc3ccc4c5c(cccc35)C(=O)N4C3CCC(=O)NC3=O)cc2)C[C@H](C)O1 (stereo partly drawn) [Compound 231, 3-(6-(4-(((2R,6S)-2,6-dimethylmorpholino)methyl)benzyl)-2-oxobenzo[cd]indol-1(2H)-yl)piperidine-2,6-dione] | < 1
4 | CC1(C(=O)N2CCC(n3cc(Cc4ccc5c6c(cccc46)C(=O)N5C4CCC(=O)NC4=O)cn3)CC2)CCC1 (single isomer, unassigned) [Compound 67, 3-[6-[[1-[1-(1-methylcyclobutanecarbonyl)-4-piperidyl]pyrazol-4-yl]methyl]-2-oxo-benzo[cd]indol-1-yl]piperidine-2,6-dione] | < 1
5 | CC1(C(=O)N2CCC(n3cc(Sc4ccc5c6c(cccc46)C(=O)N5C4CCC(=O)NC4=O)cn3)CC2)CCC1 (stereo not drawn) [Compound 174, 3-[6-[1-[1-(1-methylcyclobutanecarbonyl)-4-piperidyl]pyrazol-4-yl]sulfanyl-2-oxo-benzo[cd]indol-1-yl]piperidine-2,6-dione] | < 1
6 | CC(C)(CF)C(=O)N1CCC(C)(n2cc(Cc3ccc4c5c(cccc35)C(=O)N4C3CCC(=O)NC3=O)cn2)CC1 (stereo not drawn) [Compound 95, 3-(6-((1-(1-(3-fluoro-2,2-dimethylpropanoyl)-4-methylpiperidin-4-yl)-1H-pyrazol-4-yl)methyl)-2-oxobenzo[cd]indol-1(2H)-yl)piperidine-2,6-dione] | < 1
7 | N#CC1(CN2CCC(n3cc(Cc4ccc5c6c(cccc46)C(=O)N5C4CCC(=O)NC4=O)cn3)CC2)CCC1 (stereo not drawn) [Compound 60, 1-((4-(4-((1-(2,6-dioxopiperidin-3-yl)-2-oxo-1,2-dihydrobenzo[cd]indol-6-yl)methyl)-1H-pyrazol-1-yl)piperidin-1-yl)methyl)cyclobutane-1-carbonitrile] | < 1
8 | COCC(C)(C)C(=O)N1CCC(C)(n2cc(Cc3ccc4c5c(cccc35)C(=O)N4C3CCC(=O)NC3=O)cn2)CC1 (stereo not drawn) [Compound 85, 3-(6-((1-(1-(3-methoxy-2,2-dimethylpropanoyl)-4-methylpiperidin-4-yl)-1H-pyrazol-4-yl)methyl)-2-oxobenzo[cd]indol-1(2H)-yl)piperidine-2,6-dione] | < 1
9 | CC(C)(C)OC(=O)N1CCC(n2cc(Nc3ccc4c5c(cccc35)C(=O)N4C3CCC(=O)NC3=O)cn2)CC1 (stereo not drawn) [Compound 248, tert-butyl 4-[4-[[1-(2,6-dioxo-3-piperidyl)-2-oxo-benzo[cd]indol-6-yl]amino]pyrazol-1-yl]piperidine-1-carboxylate] | < 100
10 | COC(C)(C)C(=O)N1CCC(C)(n2cc(Cc3ccc4c5c(cccc35)C(=O)N4C3CCC(=O)NC3=O)cn2)CC1 (stereo not drawn) [Compound 84, 3-(6-((1-(1-(2-methoxy-2-methylpropanoyl)-4-methylpiperidin-4-yl)-1H-pyrazol-4-yl)methyl)-2-oxobenzo[cd]indol-1(2H)-yl)piperidine-2,6-dione] | < 1
11 | O=C1CCC(N2C(=O)c3cccc4c(Cc5ccc(CN6CC(Oc7ccc(F)cc7)C6)cc5)ccc2c34)C(=O)N1 (stereo not drawn) [Compound 120, 3-(6-(4-((3-(4-fluorophenoxy)azetidin-1-yl)methyl)benzyl)-2-oxobenzo[cd]indol-1(2H)-yl)piperidine-2,6-dione] | < 1
12 | CC1(n2cc(Cc3ccc4c5c(cccc35)C(=O)N4C3CCC(=O)NC3=O)cn2)CCN(C(=O)C2(C#N)CCC2)CC1 (stereo not drawn) [Compound 86, 1-(4-(4-((1-(2,6-dioxopiperidin-3-yl)-2-oxo-1,2-dihydrobenzo[cd]indol-6-yl)methyl)-1H-pyrazol-1-yl)-4-methylpiperidine-1-carbonyl)cyclobutane-1-carbonitrile] | < 1
13 | N#Cc1ccc(N2CCN(Cc3ccc(Cc4ccc5c6c(cccc46)C(=O)N5C4CCC(=O)NC4=O)cn3)CC2)c(F)c1 (stereo not drawn) [Compound 279, 4-[4-[[5-[[1-(2,6-dioxo-3-piperidyl)-2-oxo-benzo[cd]indol-6-yl]methyl]-2-pyridyl]methyl]piperazin-1-yl]-3-fluoro-benzonitrile] | < 1
14 | Cc1cc(Cc2ccc3c4c(cccc24)C(=O)N3C2CCC(=O)NC2=O)ccc1CN1CCN(c2ccccc2F)CC1 (stereo not drawn) [Compound 286, 3-[6-[[4-[[4-(2-fluorophenyl)piperazin-1-yl]methyl]-3-methyl-phenyl]methyl]-2-oxo-benzo[cd]indol-1-yl]piperidine-2,6-dione] | < 1
15 | CN(C(=O)N1CCC(n2cc(Cc3ccc4c5c(cccc35)C(=O)N4C3CCC(=O)NC3=O)cn2)CC1)C(C)(C)C (stereo not drawn) [Compound 132, N-tert-butyl-4-[4-[[1-(2,6-dioxo-3-piperidyl)-2-oxo-benzo[cd]indol-6-yl]methyl]pyrazol-1-yl]-N-methyl-piperidine-1-carboxamide] | < 1
16 | CC1(C(=O)N2CCC(C)(n3cc(Cc4ccc5c6c(cccc46)C(=O)N5C4CCC(=O)NC4=O)c(Cl)n3)CC2)CCC1 (stereo not drawn) [Compound 133] | < 1
17 | CC1(C(=O)N2CCC(c3cnn(Cc4ccc5c6c(cccc46)C(=O)N5C4CCC(=O)NC4=O)c3)CC2)CCC1 (stereo not drawn) [Compound 270, 3-[6-[[4-[1-(1-methylcyclobutanecarbonyl)-4-piperidyl]pyrazol-1-yl]methyl]-2-oxo-benzo[cd]indol-1-yl]piperidine-2,6-dione] | < 1
18 | CC12CC(C(=O)N3CCC(C)(n4cc(Cc5ccc6c7c(cccc57)C(=O)N6C5CCC(=O)NC5=O)cn4)CC3)(CCO1)C2 (stereo not drawn) [Compound 88, 3-(6-((1-(4-methyl-1-(1-methyl-2-oxabicyclo[3.1.1]heptane-5-carbonyl)piperidin-4-yl)-1H-pyrazol-4-yl)methyl)-2-oxobenzo[cd]indol-1(2H)-yl)piperidine-2,6-dione] | < 1
19 | N#Cc1ccc(N2CCC(Oc3ccc(Cc4ccc5c6c(cccc46)C(=O)N5C4CCC(=O)NC4=O)cc3)CC2)c(F)c1 (stereo not drawn) [Compound 171, 4-[4-[4-[[1-(2,6-dioxo-3-piperidyl)-2-oxo-benzo[cd]indol-6-yl]methyl]phenoxy]-1-piperidyl]-3-fluoro-benzonitrile] | < 1

Same assay, conditions: NCIH929.1 cell viability, 96 hr, top concentration 1 μM, 14 points half log titration; read-out: IC50

Row | SMILES | IC50 [nM]
20 | O=C1CCC(N2C(=O)c3cccc4c(Cc5ccc(CN6CCN(S(=O)(=O)CC(F)(F)F)CC6)cc5)ccc2c34)C(=O)N1 (single isomer, unassigned) [Compound 160, 3-(2-Oxo-6-{4-[4-(2,2,2-trifluoro-ethanesulfonyl)-piperazin-1-ylmethyl]-benzyl}-2H-benzo[cd]indol-1-yl)-piperidine-2,6-dione] | < 1
21 | CC(C1CCC1)N1CCC(n2cc(Cc3ccc4c5c(cccc35)C(=O)N4C3CCC(=O)NC3=O)cn2)CC1 (single isomer, unassigned) [Compound 281, 3-[6-[[1-[1-[1-cyclobutylethyl]-4-piperidyl]pyrazol-4-yl]methyl]-2-oxo-benzo[cd]indol-1-yl]piperidine-2,6-dione] | < 1

From US20230082430A1 (C4 Therapeutics, Inc., priority 2019, published 2023)
